# Reference: patent publication US6818667B2, “Eurotinones, and derivatives thereof, processes for preparing them, and their use” (Aventis Pharma Deutschland GmbH, priority 2001, dated 2004)
# Molecular target: KDR kinase (VEGF receptor) (Homo sapiens, UniProt P35968)
# Assay: KDR kinase activity assay (FlashPlate, 33P-ATP phosphorylation of peptide substrate PLCγ1)
# Assay type: biochemical
# Settings: purified enzyme, 5 μM cold ATP, pH 7.4, RT 1 h
# Procedure: The tyrosine kinase receptor KDR is the test target. KDR plays a key role in the growth of endothelium and in angiogenesis and is consequently also involved in the development of tumors. KDR is consequently an important therapeutic target molecule for cancer diseases and other proliferative diseases. In the test, the activity of the KDR kinase is measured on the basis of the phosphorylation of a specific peptide substrate.
# The KDR kinase was determined using purified enzyme in 384-well microtiter plates (Coated FlashPlates, NEN Life Science). The enzyme activities were determined by means of phosphorylating a specific peptide substrate. A previously prepared series of dilutions of the eurotinones having concentrations of 100, 50, 25, 12.5, 6.25, 3.125, 1.5625, 0.7813, 0.3906, 0.195, 0.094, 0.047 and 0 μM were pipetted, in the corresponding order, into the experimental assays. The reaction mixture (radioactively labeled ATP, buffer solution at pH 7.4 and enzyme solutions) was then added and the whole was incubated at RT for 1 h.
# Enzyme: KDR kinase (VEGF receptor)
# 50 mM MOPS, pH7.4, 10 mM MgCl2, 2 mM DTT, 2.5 mM EDTA,
# ATP solution: 25μCi of ^33P-γ-ATP/ml and 12.5 μM cold ATP
# KDR enzyme solution: 3.5 μg/ml in kinase buffer
# 384-well FlashPlates were coated, at […] and overnight, with 60 μl (1.2 μg/well) of the peptide substrate and then washed 3×with in each case 80 μl of PBS. The plates which had been coated in this way can be stored for a relatively short time at 4° C. and for a longer period at −20° C. […]
# The plates were subsequently washed three times with 75 μl of washing solution in each case and the radioactivity is measured over 30 seconds in a MicroBeta counter (Wallac). […]
# The activity of the KDR kinase was measured by way of the incorporation of radioactive phosphate from ATP into the substrate, and the inhibitory effect of the eurotinone (IC50) was calculated from this incorporation.
# The inhibition was calculated as: […]
# KDR kinase (VEGF receptor), sequence (P35968 20-1356): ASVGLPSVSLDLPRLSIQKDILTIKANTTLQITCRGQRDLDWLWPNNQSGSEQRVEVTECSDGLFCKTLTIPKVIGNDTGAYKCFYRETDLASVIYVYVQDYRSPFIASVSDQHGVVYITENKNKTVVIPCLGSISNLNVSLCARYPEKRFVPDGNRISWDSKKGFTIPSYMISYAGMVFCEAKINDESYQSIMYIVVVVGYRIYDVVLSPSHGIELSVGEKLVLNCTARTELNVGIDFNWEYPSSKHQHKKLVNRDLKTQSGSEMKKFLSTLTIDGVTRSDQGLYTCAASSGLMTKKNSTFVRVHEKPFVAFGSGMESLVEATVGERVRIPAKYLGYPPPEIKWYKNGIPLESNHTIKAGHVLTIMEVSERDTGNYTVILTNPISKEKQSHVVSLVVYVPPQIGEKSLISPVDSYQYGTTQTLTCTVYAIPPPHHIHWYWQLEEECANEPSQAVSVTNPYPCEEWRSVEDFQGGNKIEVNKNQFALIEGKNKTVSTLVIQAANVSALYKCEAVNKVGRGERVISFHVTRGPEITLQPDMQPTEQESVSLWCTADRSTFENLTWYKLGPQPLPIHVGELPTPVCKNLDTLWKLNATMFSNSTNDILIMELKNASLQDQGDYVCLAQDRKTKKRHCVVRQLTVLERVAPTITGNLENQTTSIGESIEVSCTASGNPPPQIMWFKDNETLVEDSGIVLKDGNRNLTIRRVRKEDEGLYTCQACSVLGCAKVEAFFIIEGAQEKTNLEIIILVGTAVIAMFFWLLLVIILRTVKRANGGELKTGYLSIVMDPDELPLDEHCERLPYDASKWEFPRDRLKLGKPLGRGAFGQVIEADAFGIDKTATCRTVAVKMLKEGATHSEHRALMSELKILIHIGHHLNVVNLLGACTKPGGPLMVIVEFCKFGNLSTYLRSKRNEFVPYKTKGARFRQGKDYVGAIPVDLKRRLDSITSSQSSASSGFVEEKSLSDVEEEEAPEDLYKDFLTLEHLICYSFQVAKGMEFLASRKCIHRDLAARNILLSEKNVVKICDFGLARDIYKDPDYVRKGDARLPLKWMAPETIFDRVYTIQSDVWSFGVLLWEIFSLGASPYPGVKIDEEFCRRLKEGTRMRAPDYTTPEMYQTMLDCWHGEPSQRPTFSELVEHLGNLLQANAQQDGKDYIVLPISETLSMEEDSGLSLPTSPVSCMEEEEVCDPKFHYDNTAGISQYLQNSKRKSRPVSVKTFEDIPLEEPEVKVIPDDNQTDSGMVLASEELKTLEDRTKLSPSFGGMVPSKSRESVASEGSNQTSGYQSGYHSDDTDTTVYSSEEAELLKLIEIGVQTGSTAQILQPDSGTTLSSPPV
row,IC50 [µM],Structure (SMILES)
1,22,"Cc1cc(O)c2c(c1O)Cc1cc(O)cc(O)c1OC2=O [eurotinone (compound 1), eurotinone]"
2,155,"COc1cc(O)cc2c1OC(=O)c1c(OC)cc(C)c(O)c1C2 [2,12-dimethyleurotinone (compound 2), 2,12-dimethyleurotinone]"
3,18,"COc1cc(O)cc2c1OC(=O)c1c(O)cc(C)c(O)c1C2 [2-methyleurotinone (compound 3), 2-methyleurotinone]"
